The text below walks through data of paper PMC11013477, “Lycocasine A, a Lycopodium Alkaloid from Lycopodiastrum casuarinoides and Its Acid-Sensing Ion Channel 1a Inhibitory Activity” (Molecules, 2024).

Where two headings read alike, the source gives them in different places.

In series [1] the target is T1, ASIC1a (Homo sapiens, UniProt P78348).
T1 construct: expressed in transfected cells; host or cells: HEK293T
T1 sequence (P78348 1-528): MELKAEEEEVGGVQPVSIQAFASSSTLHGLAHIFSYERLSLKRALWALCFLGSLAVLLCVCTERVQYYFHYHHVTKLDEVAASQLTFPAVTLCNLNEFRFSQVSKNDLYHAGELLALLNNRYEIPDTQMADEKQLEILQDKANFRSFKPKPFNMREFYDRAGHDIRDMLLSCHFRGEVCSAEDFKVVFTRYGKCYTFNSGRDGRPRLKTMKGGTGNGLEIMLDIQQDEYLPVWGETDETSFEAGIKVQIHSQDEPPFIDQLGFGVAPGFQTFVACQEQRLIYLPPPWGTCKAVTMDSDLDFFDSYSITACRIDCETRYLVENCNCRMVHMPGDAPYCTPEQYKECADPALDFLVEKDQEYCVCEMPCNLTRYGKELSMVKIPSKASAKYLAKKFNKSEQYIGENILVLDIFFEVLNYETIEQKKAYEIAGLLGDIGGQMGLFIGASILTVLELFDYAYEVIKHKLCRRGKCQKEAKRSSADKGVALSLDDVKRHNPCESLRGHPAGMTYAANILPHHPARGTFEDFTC
Briefly: Whole-cell voltage-clamp recording of ASIC1a currents in transfected HEK293T cells. It counts as cell-based. The settings on record: for inhibition at 50 µM: HEK-293T. Here is the method:
Cells were plated at a low density in 12-well plates 24 h prior to transfection. For transfection, Lipofectamine 3000 (Invitrogen, Thermo Fisher Scientific, Inc., Waltham, MA, USA) was utilized to introduce 300 ng of ASIC1a cDNA into adherent cells, which were then analyzed for 24–48 h post-transfection. […] Borosilicate glass micropipettes, fashioned to achieve a resistance of 2–6 MΩ, were filled with an intracellular recording solution comprising 140 mM KCl, 2 mM MgCl2, 5 mM EGTA, 5 mM NaCl, and 10 mM HEPES (adjusted to pH 7.4 with KOH). […] Current signals were amplified using a SUTTER IPA-2 amplifier, with data acquisition and analysis performed using SutterPatch 9.0 software. Data processing was carried out using GraphPad Prism version 8.0.

The target of series [2] is T1, ASIC1a. The settings on record: read-out: IC50 ASIC1a inhibition; cited from earlier work.
[3] abbreviates: 50 μM, HEK293T cells transfected with ASIC1a, currents triggered by pH 6.0, holding potential −60 mV, read-out: inhibition rate of ASIC1a currents.

Regarding `N=C(N)NC(=O)c1nc(Cl)c(N)nc1N` [Amiloride], in series [1] (setting [3]), the inhibition at 50 µM was more than 50%. `C=CC1C2C=C(C)CC1(N(C)C)C1=C(C(=O)OC)C(=O)NC1(O)C2` (centres unmarked) [Compound 1, lycocasine A] gave a melting point of 187 to 189 °C. In series [1], this compound displayed an IC50 of 48.7 ± 0.92 µM. Further, the inhibition at 50 µM in series [1] (pH 6, read-out: inhibition rate of ASIC1a currents) is more than 50%. Turning to `CC1=C[C@H]2Cc3[nH]c(=O)ccc3[C@]3(C1)NCCC[C@H]23` [Compound 7, huperzine B], the inhibition at 50 µM in series [1] (setting [3]) was less than 30%. In the case of `COc1cc2c(cc1O)[C@H](Cc1ccc(Oc3cc(C[C@@H]4NCCc5cc(OC)c(O)cc54)ccc3O)cc1)NCC2` [Lindoldhamine], the IC50 in series [2] was 9 µM. Turning to `O=c1c(-c2ccc(O)cc2)coc2c([C@@H]3O[C@H](CO)[C@@H](O)[C@H](O)[C@H]3O)c(O)ccc12` [Puerarin], the IC50 in series [2] was 9.31 µM. As to `COC1=C[C@@H]2[C@@H]3Cc4ccc(OC)c(O)c4[C@]2(CCN3C)CC1=O` [Sinomenine], in series [2], the IC50 is approximately 1 µM.
